# Reference: PMC10302868 (Molecules, 2023)
# Where two headings read alike, the source gives them in different places.
# What was measured:
# [1] = tested on: S. aureus ATCC 700698 (MRSA); assay: MIC determination; format: cell-based; conditions: Staphylococcus aureus
# M. abscessus-C58 = assay: MIC determination (Microplate Alamar Blue Assay); format: cell-based, Mycobacterium abscessus; conditions: Mycobacteroides abscessus; M. abscessus-C58, 72 h
# [2] = human
# [3] = tested on: Wolbachia-infected LDW1 cells (wMel); conditions: cited from earlier work
# M. abscessus-C16 = assay: MIC determination (Microplate Alamar Blue Assay); format: cell-based, Mycobacterium abscessus; conditions: Mycobacteroides abscessus; M. abscessus-C16, 72 h
# S. pyogenes SPY-0253 = assay: MIC determination; format: cell-based; conditions: Streptococcus pyogenes, SPY0253
# in vitro [4] = format: in vitro ADME; conditions: hepatocytes
# Protocol: Cryopreserved hepatocytes from male SD rats and humans were both purchased from Bioreclamation-IVT. The human cryopreserved hepatocytes were pooled from 10 human donors with a viability of 77.9% tested by trypan blue. The rats’ cryopreserved hepatocytes were pooled from 12 male SD (Sprague Dawley) rats, and the cell viability was 80.9%. The hepatocytes were diluted to 0.5 × 10^6/mL cell suspension with pre-warmed incubation medium ([…]). […] At 15, 30, 60, and 90 min, the samples were mixed and then 25 μL of each sample was transferred at each time point to a well containing 125 μL of ice-cold stop solution (acetonitrile containing 200 ng/mL tolbutamide and labetalol as internal standards) followed by mixing. The samples were vortexed on a plate shaker at 500 rpm for 10 min, and centrifuged at 3220× g for 20 min at 4 °C. The supernatants were transferred to ultra-pure water and analyzed by LC-MS/MS. […] CLint (hep) = k/million cells per mL CLint (liver) = CLint (hep) × liver weight (g/kg body weight) × hepatocellularity
# [5] = tested on: K. pneumoniae ATCC BAA-1705; assay: MIC determination; format: cell-based; conditions: Klebsiella pneumoniae, ATCCBAA1705
# [6] = tested on: Wolbachia-infected C6/36 cells (wAlb); conditions: cited from earlier work
# [7] = allometric scaling from rat volume of distribution
# in vivo = conditions: male, Sprague-Dawley, rat
# S. maltophilia STM-0001 = assay: MIC determination; format: cell-based; conditions: Stenotrophomonas maltophilia, STM0001
# in vitro [8] = conditions: African green monkey
# E. faecalis ATCC 29212 = assay: MIC determination; format: cell-based; conditions: Enterococcus faecalis, ATCC29212
# MDR1-MDCK = conditions: cited from earlier work
# in vitro [9] = format: in vitro ADME; conditions: human, plasma, pH 7.4
# Protocol: Human plasma (BIOMEX GmbH) was mixed from more than 6 individuals and rat plasma was mixed from more than 10 rats. […] The samples were matched with opposite blank buffer to obtain a final volume of 100 µL with a volume ratio of the matrix: Dialysis Buffer (100 mM sodium phosphate and 150 mM NaCl, pH 7.4) (1:1) in each well. […] The plate was sealed and shaken at 800 rpm for 10 min. Then these T0 samples were stored at 4 °C pending further processing along with other post-dialysis samples. […] The plate was rotated at 100 rpm in a humidified incubator with 5% CO2 at 37 °C for 4 h. At the end of the dialysis, all samples were further processed by protein precipitation for LC-MS/MS analysis. The %bound was calculated using the following equations:%Unbound = 100 × F/T %Bound = 100 − %Unbound
# F = Free compound concentration as determined by the calculated concentration on the buffer side of the membrane.
# T = Total compound concentration as determined by the calculated concentration on the matrix side of the membrane.
# P. aeruginosa ATCC 27853 = assay: MIC determination; format: cell-based; conditions: Pseudomonas aeruginosa, ATCC27853
# S. epidermidis SEP-1024 = assay: MIC determination; format: cell-based; conditions: Staphylococcus epidermidis, SEP1024
# A. baumannii ATCC 17978 = assay: MIC determination; format: cell-based; conditions: Acinetobacter baumannii, ATCC17978
# S. pneumoniae SPN-1169 = assay: MIC determination; format: cell-based; conditions: Streptococcus pneumoniae, SPN1169
# [10] = tested on: M. tuberculosis H37Rv ATCC27294; assay: MIC determination (Microplate Alamar Blue Assay); format: cell-based, Mycobacterium tuberculosis; conditions: M. tuberculosis H37Rv ATCC27294, 7 days
# in vitro [11] = format: in vitro ADME; conditions: microsomes
# Protocol: Microsomes from humans and rats were purchased from Corning (Shanghai, China) and Xenotech (Kansas City, KS, USA), respectively. The working solution of liver microsomes was prepared in 100 mM phosphate buffer at 0.56 mg/mL. The quench solution was cold (4 °C) acetonitrile (ACN) containing 200 ng/mL Verapamil and 200 ng/mL Imipramine as internal standards (IS). An amount of 445 µL of the microsomal working solution was transferred into the pre-warmed plates T120 (incubate time: 120 min) and NCF 120 (no co-factor NADPH regenerating system), then the plates were incubated at 37 °C for 10 min with constant shaking. An amount of 54 µL of the liver microsomes was transferred into a blank plate, and 6 µL NADPH and 180 µL quenching solution were added to the blank plate. The microsomal working solution (0.56 mg/mL) and the compound working solution (100 µM) were mixed 3 times thoroughly and 54 µL was immediately removed for the 0 min point. Then 44 µL NADPH cofactor was added to the incubation plate, and shaken at 37 °C for 120 min. At 15, 30, 60, 90, and 120 min, a 60 µL sample was transferred to the quenching solution and centrifuged at 4000 rpm for 20 min at 4 °C [6]. Then, 80 µL supernatant was transferred to the HPLC water and shaken for 10 min before LC-MS/MS analysis.
compound,measurement,setting,value
C=C[C@]1(C)C[C@@H](OC(=O)COc2ccc3c(c2F)B(O)OC3)[C@]2(C)[C@H](C)CC[C@]3(CCC(=O)[C@H]32)[C@@H](C)[C@@H]1O [AN11251],MIC,[1],< 0.039 µg/mL
same,MIC,M. abscessus-C58,> 20 µg/mL
same,half-life,[2],4.2 h
same,EC50,[3],0.000792 µg/mL
same,MIC,M. abscessus-C16,> 20 µg/mL
same,MIC,S. pyogenes SPY-0253,0.063 µg/mL
same,CLint scaled at 20 µg/mL,in vitro [4]; human,180 mL/min/kg
same,hepatocyte CLint at 20 µg/mL,in vitro [4]; human,64.8 µL/min/1e6 cells
same,CLint scaled at 20 µg/mL,"in vitro [4]; male, Sprague-Dawley, rat",876 mL/min/kg
same,MIC,[5],> 32 µg/mL
same,EC50,[6],0.00792 µg/mL
same,predicted human volume of distribution,[7],1.029 L/kg
same,bioavailability,in vivo,19.2%
same,Tmax,"in vivo; iv, 3 mg/kg",0 h
same,Vd,"in vivo; iv, 3 mg/kg",1.44 L/kg
same,clearance,"in vivo; iv, 3 mg/kg",19.8 mL/min/kg
same,half-life,"in vivo; iv, 3 mg/kg",1.75 h
same,MRT,"in vivo; iv, 3 mg/kg",1.22 h
same,half-life,"in vivo; po, 10 mg/kg",2.39 h
same,MRT,"in vivo; po, 10 mg/kg",2.26 h
same,MIC,S. maltophilia STM-0001,> 32 µg/mL
same,CC50,in vitro [8],27 µg/mL
same,MIC,E. faecalis ATCC 29212,5 µg/mL
same,apparent permeability (Papp),MDR1-MDCK,14.1 ×10⁻⁶ cm/s
same,"fraction unbound at 4 h, 2 µM",in vitro [9],0.024
same,MIC,P. aeruginosa ATCC 27853,> 32 µg/mL
same,MIC,S. epidermidis SEP-1024,0.063 µg/mL
same,MIC,A. baumannii ATCC 17978,20 µg/mL
same,MIC,S. pneumoniae SPN-1169,0.5 µg/mL
same,MIC,[10],0.952 µg/mL
same,MIC,"[10]; Mycobacterium tuberculosis, 168 h, read-out: MIC",0.925 µg/mL
same,CLint scaled,in vitro [11]; human,300 mL/min/kg
same,CLint scaled,in vitro [11]; rat,333 mL/min/kg
